According to patent US20170334899A1, “AMINO-SUBSTITUTED ISOTHIAZOLES” (Bayer Pharma Aktiengesellschaft, priority 2014, published 2017):

Test system: human cervical tumor cell line HeLa (ATCC CCL-2)
Assay: SAC-Formation - Paclitaxel-Induced Assay
Assay type: cell-based
Conditions: Homo sapiens, HeLa, 24 h, HeLa cells, paclitaxel 0.05 μM, test range 0.005 μM-20 μM, read-out: IC50 [mol/l] SAC-Formation - Paclitaxel-Induced Assay
How it was run: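 HeLa cells incubated overnight at 37° C, then given paclitaxel (0.05 μM final) plus test compound (0.005–20 μM, 0.5% DMSO) together for 24 h at 37° C. Fixed cells stained for phospho-histone H3 Ser10 (mitotic cells) and Hoechst 33342 (cell count); imaging-derived mitotic index fitted by four-parameter Hill equation.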

Structure (SMILES) | IC50
Cc1nsc(Nc2ccc(C#N)cn2)c1C(=O)Nc1ccc(OC2CCNCC2)nc1 [Example 28, 5-[(5-Cyanopyridin-2-yl)amino]-3-methyl-N-[6-(piperidin-4-yloxy)pyridin-3-yl]-1,2-thiazole-4-carboxannide] | 20000 nM
Cc1nsc(Nc2ccc(C#N)cn2)c1C(=O)Nc1ccc(OC2CCN(CCF)CC2)nc1 [Example 29, 5-[(5-Cyanopyridin-2-yl)amino]-N-(6-{[1-(2-fluoroethyl)piperidin-4-yl]oxy}pyridin-3-yl)-3-methyl-1,2-thiazole-4-carboxamide] | 20000 nM
Cc1nsc(Nc2cnc3ccccc3n2)c1C(=O)Nc1ccc(OC2CCCNC2)nc1 (stereo not shown) [Example 32, 3-Methyl-N-[6-(piperidin-3-yloxy)pyridin-3-yl]-5-(quinoxalin-2-ylamino)-1,2-thiazole-4-carboxannide] | 11000 nM
Cc1nsc(Nc2cnc3ccccc3n2)c1C(=O)Nc1ccc(OC2CCCN(CC(F)F)C2)nc1 (stereo not shown) [Example 33, N-(6-{[1-(2,2-Difluoroethyl)piperidin-3-yl]oxy}pyridin-3-yl)-3-methyl-5-(quinoxalin-2-ylamino)-1,2-thiazole-4-carboxamide] | 74 nM
Cc1nsc(Nc2cc(C#N)ccn2)c1C(=O)Nc1ccc(OC2CCCN(C(=O)OC(C)(C)C)C2)nc1 (stereo not shown) [Example 34, tert-Butyl 3({5-[({5-[(4-cyanopyridin-2-yl)amino]-3-methyl-1,2-thiazol-4-yl}-carbonyl)amino]pyridin-2-yl}oxy)piperidine-1-carboxylate] | 990 nM
Cc1nsc(Nc2cnc(C(F)(F)F)cn2)c1C(=O)Nc1ccc(OCCNCCC(F)(F)F)nc1 [Example 323, 3-methyl-5-{[5-(trifluoromethyl)pyrazin-2-yl]amino}-N-(6-{2-[(3,3,3-trifluoropropyl)amino]ethoxy}pyridin-3-yl)-1,2-thiazole-4-carboxamide] | 800 nM
Cc1nsc(Nc2cnc(C(F)(F)F)cn2)c1C(=O)Nc1ccc(OC2CCN(C(CF)CF)CC2)nc1 [Example 324, N-(6-{[1-(1,3-difluoropropan-2-yl)piperidin-4-yl]oxy}pyridin-3-yl)-3-methyl-5-{[5-(trifluoromethyl)pyrazin-2-yl]amino}-1,2-thiazole-4-carboxamide] | 870 nM
Cc1nsc(Nc2cnc(C(F)(F)F)cn2)c1C(=O)Nc1ccc(OCC2CCCN(CC(F)F)C2)nc1 (stereo not shown) [Example 327, N-(6-{[1-(2,2-difluoroethyl)piperidin-3-yl]methoxy}pyridin-3-yl)-3-methyl-5-{[5-(trifluoromethyl)pyrazin-2-yl]amino}-1,2-thiazole-4-carboxamide] | 57 nM
Cc1nsc(Nc2cnc(C(F)(F)F)cn2)c1C(=O)Nc1ccc(OCC2CCCN(CCC(F)(F)F)C2)nc1 (stereo not shown) [Example 328, 3-methyl-5-{[5-(trifluoromethyl)pyrazin-2-yl]amino}-N-(6-{[1-(3,3,3-trifluoropropyl)piperidin-3-yl]methoxy}pyridin-3-yl)-1,2-thiazole-4-carboxamide] | 37 nM
Cc1nsc(Nc2cnc(C(F)(F)F)cn2)c1C(=O)Nc1ccc(OC2CCCN(CCF)C2)nc1 (stereo not shown) [Example 329, N-(6-{[1-(2-fluoroethyl)piperidin-3-yl]oxy}pyridin-3-yl)-3-methyl-5-{[5-(trifluoromethyl)pyrazin-2-yl]amino}-1,2-thiazole-4-carboxamide] | 180 nM
Cc1nsc(Nc2cnc(C(F)(F)F)cn2)c1C(=O)Nc1ccc(OC2CCCN(CCC(F)(F)F)C2)nc1 (stereo not shown) [Example 332, 3-methyl-5-{[5-(trifluoromethyl)pyrazin-2-yl]amino}-N-(6-{[1-(3,3,3-trifluoropropyl)piperidin-3-yl]oxy}pyridin-3-yl)-1,2-thiazole-4-carboxamide] | 25 nM
Cc1nsc(Nc2cnc(C(F)(F)F)cn2)c1C(=O)Nc1ccc(F)c(OCC2CCCN(CCF)C2)c1 (stereo not shown) [Example 336, N-(4-fluoro-3-{[1-(2-fluoroethyl)piperidin-3-yl]methoxy}phenyl)-3-methyl-5-{[5-(trifluoromethyl)pyrazin-2-yl]amino}-1,2-thiazole-4-carboxamide] | 61 nM
Cc1nsc(Nc2cnc(C(F)(F)F)cn2)c1C(=O)Nc1ccc(F)c(OCC2CCCN(CC(F)(F)F)C2)c1 (stereo not shown) [Example 337, N-(4-fluoro-3-{[1-(2,2,2-trifluoroethyl)piperidin-3-yl]methoxy}phenyl)-3-methyl-5-{[5-(trifluoromethyl)pyrazin-2-yl]amino}-1,2-thiazole-4-carboxamide] | 51 nM
Cc1nsc(Nc2cnc(C(F)(F)F)cn2)c1C(=O)Nc1ccc(F)c(OCC2CCCN(CCC(F)(F)F)C2)c1 (stereo not shown) [Example 338, N-(4-fluoro-3-{[1-(3,3,3-trifluoropropyl)piperidin-3-yl]methoxy}phenyl)-3-methyl-5-{[5-(trifluoromethyl)pyrazin-2-yl]amino}-1,2-thiazole-4-carboxamide] | 79 nM
Cc1nsc(Nc2cnc(C(F)(F)F)cn2)c1C(=O)Nc1ccc(F)c(OC[C@@H]2CCN(CCC(F)(F)F)C2)c1 [Example 340, N-(4-fluoro-3-{[(3R)-1-(3,3,3-trifluoropropyl)pyrrolidin-3-yl]methoxy}phenyl)-3-methyl-5-{[5-(trifluoromethyl)pyrazin-2-yl]amino}-1,2-thiazole-4-carboxamide] | 35 nM
Cc1nsc(Nc2cnc(C(F)(F)F)cn2)c1C(=O)Nc1ccc(F)c(OC[C@@H]2CCCN(CC(F)(F)F)C2)c1 [Example 342, N-(4-fluoro-3-{[(3R)-1-(2,2,2-trifluoroethyl)piperidin-3-yl]methoxy}phenyl)-3-methyl-5-{[5-(trifluoromethyl)pyrazin-2-yl]amino}-1,2-thiazole-4-carboxamide] | 110 nM
Cc1nsc(Nc2cncc(C(F)(F)F)n2)c1C(=O)Nc1ccc(F)c(OC2CCN(CCC(F)(F)F)CC2)c1 [Example 343, N-(4-fluoro-3-{[1-(3,3,3-trifluoropropyl)piperidin-4-yl]oxy}phenyl)-3-methyl-5-{[6-(trifluoromethyl)pyrazin-2-yl]amino}-1,2-thiazole-4-carboxamide] | 210 nM
Cc1nsc(Nc2cnc(C(F)(F)F)cn2)c1C(=O)Nc1ccc(OCC2CCN(CC(F)F)CC2)nc1 [Example 345, N-(6-{[1-(2,2-difluoroethyl)piperidin-4-yl]methoxy}pyridin-3-yl)-3-methyl-5-{[5-(trifluoromethyl)pyrazin-2-yl]amino}-1,2-thiazole-4-carboxamide] | 21 nM
Cc1nsc(Nc2cnc(C(F)(F)F)cn2)c1C(=O)Nc1ccc(OCC2CCN(CC(F)(F)F)CC2)nc1 [Example 346, 3-methyl-N-(6-{[1-(2,2,2-trifluoroethyl)piperidin-4-yl]methoxy}pyridin-3-yl)-5-{[5-(trifluoromethyl)pyrazin-2-yl]amino}-1,2-thiazole-4-carboxamide] | 32 nM

Other lines, results leading:

IC50 | Structure (SMILES)
53 nM | Cc1nsc(Nc2cnc(C(F)(F)F)cn2)c1C(=O)Nc1ccc(OCC2CCCN(CCF)C2)nc1 (stereo not shown) [Example 325, N-(6-{[1-(2-fluoroethyl)piperidin-3-yl]methoxy}pyridin-3-yl)-3-methyl-5-{[5-(trifluoromethyl)pyrazin-2-yl]amino}-1,2-thiazole-4-carboxamide]
2300 nM | Cc1nsc(Nc2cnc(C(F)(F)F)cn2)c1C(=O)Nc1ccc(OCC2CCCN(CC(F)(F)F)C2)nc1 (stereo not shown) [Example 326, 3-methyl-N-(6-{[1-(2,2,2-trifluoroethyl)piperidin-3-yl]methoxy}pyridin-3-yl)-5-{[5-(trifluoromethyl)pyrazin-2-yl]amino}-1,2-thiazole-4-carboxamide]
25 nM | Cc1nsc(Nc2cnc(C(F)(F)F)cn2)c1C(=O)Nc1ccc(OC2CCCN(CC(F)F)C2)nc1 (stereo not shown) [Example 330, N-(6-{[1-(2,2-difluoroethyl)piperidin-3-yl]oxy}pyridin-3-yl)-3-methyl-5-{[5-(trifluoromethyl)pyrazin-2-yl]amino}-1,2-thiazole-4-carboxamide]
23 nM | Cc1nsc(Nc2cnc(C(F)(F)F)cn2)c1C(=O)Nc1ccc(OC2CCCN(CC(F)(F)F)C2)nc1 (stereo not shown) [Example 331, 3-methyl-N-(6-{[1-(2,2,2-trifluoroethyl)piperidin-3-yl]oxy}pyridin-3-yl)-5-{[5-(trifluoromethyl)pyrazin-2-yl]amino}-1,2-thiazole-4-carboxamide]
200 nM | Cc1nsc(Nc2cnc(C(F)(F)F)cn2)c1C(=O)Nc1ccc(OC2CCCN(C(CF)CF)C2)nc1 (stereo not shown) [Example 333, N-(6-{[1-(1,3-difluoropropan-2-yl)piperidin-3-yl]oxy}pyridin-3-yl)-3-methyl-5-{[5-(trifluoromethyl)pyrazin-2-yl]amino}-1,2-thiazole-4-carboxamide]
56 nM | Cc1nsc(Nc2cnc(C(F)(F)F)cn2)c1C(=O)Nc1ccc(F)c(OCC2CCCN(CC(F)F)C2)c1 (stereo not shown) [Example 334, N-(3-{[1-(2,2-difluoroethyl)piperidin-3-yl]methoxy}-4-fluorophenyl)-3-methyl-5-{[5-(trifluoromethyl)pyrazin-2-yl]amino}-1,2-thiazole-4-carboxamide]
12 nM | Cc1nsc(Nc2cnc(C(F)(F)F)cn2)c1C(=O)Nc1ccc(F)c(OC[C@@H]2CCN(CC(F)(F)F)C2)c1 [Example 339, N-(4-fluoro-3-{[(3R)-1-(2,2,2-trifluoroethyl)pyrrolidin-3-yl]methoxy}phenyl)-3-methyl-5-{[5-(trifluoromethyl)pyrazin-2-yl]amino}-1,2-thiazole-4-carboxamide]
37 nM | Cc1nsc(Nc2cnc(C(F)(F)F)cn2)c1C(=O)Nc1ccc(F)c(OC[C@@H]2CCCN(CC(F)F)C2)c1 [Example 341, N-(3-{[(3R)-1-(2,2-difluoroethyl)piperidin-3-yl]methoxy}-4-fluorophenyl)-3-methyl-5-{[5-(trifluoromethyl)pyrazin-2-yl]amino}-1,2-thiazole-4-carboxamide]
280 nM | Cc1nsc(Nc2cnc(C(F)(F)F)cn2)c1C(=O)Nc1ccc(OCC2CCN(CCF)CC2)nc1 [Example 344, N-(6-{[1-(2-fluoroethyl)piperidin-4-yl]methoxy}pyridin-3-yl)-3-methyl-5-{[5-(trifluoromethyl)pyrazin-2-yl]amino}-1,2-thiazole-4-carboxamide]
